The text below walks through data of ChEMBL document CHEMBL6134860, “Discovery and optimization of a novel carboxamide scaffold with selective antimalarial activity” (Eur J Med Chem, 2025).

Data set [1] can be described thus: Cytotoxicity against human HepG2 cells measured after 72 hrs by hoechst 33342 staining based imaging assay. Type of data set: toxicity, cell-based.
Another data set relates to Plasmodium falciparum. In words: microbe, parasite or virus in culture. Type of data set: functional, organism-based. The note with it: W2, 72 h.

Take `CN(C(=O)c1cn(-c2ccc(Cl)cc2)nn1)c1ccc(Cl)cc1`: the CC50 at 72 h in data set [1] (read-out: CC50) and in data set [1] (read-out: pCC50 (converted)) was > 10 µM in each case. For the same compound, the EC50 in the data set with Plasmodium falciparum (read-out: EC50) and with Plasmodium falciparum (read-out: pEC50 (converted)) was > 10 µM each time.
With `Cc1ccc(-c2ncc(C(=O)N(C)c3ccc(Cl)cc3)s2)cc1`, the CC50 at 72 h in data set [1] (read-out: CC50) and in data set [1] (read-out: pCC50 (converted)) was > 10 µM throughout. In addition, the EC50 with Plasmodium falciparum (read-out: EC50) and in the data set on Plasmodium falciparum (read-out: pEC50 (converted)) was > 10 µM in each case.
As to `Cc1ccc(-n2cnc(N(C)C(=O)c3ccc(Cl)cc3)n2)cc1`, the CC50 at 72 h in data set [1] (read-out: CC50) and in data set [1] (read-out: pCC50 (converted)) was > 10 µM each time. Besides, the figures for the EC50 with Plasmodium falciparum (read-out: EC50) and with Plasmodium falciparum (read-out: pEC50 (converted)) were > 1.8 µM and > 1.82 µM, respectively.
As to `CN(C(=O)c1ncc(-c2ccc(Cl)cc2)[nH]1)c1ccc(Cl)cc1`, the CC50 at 72 h in data set [1] (read-out: CC50) and in data set [1] (read-out: pCC50 (converted)) was > 10 µM in each case. In addition, the EC50 was > 7.09 µM with Plasmodium falciparum (read-out: EC50) and > 7.08 µM in the data set with Plasmodium falciparum (read-out: pEC50 (converted)).
As to `CN(C(=O)c1ccc(Cl)cc1)c1ncn(-c2ccc(Cl)cc2)n1`, the CC50 at 72 h in data set [1] (read-out: CC50) and in data set [1] (read-out: pCC50 (converted)) was > 10 µM each time. Further, the EC50 is > 1.52 µM in the data set on Plasmodium falciparum (read-out: EC50) and > 1.51 µM in the data set on Plasmodium falciparum (read-out: pEC50 (converted)).
As for `Cc1ccc(-n2cnc(C(=O)N(C)c3ccc(Cl)cc3)n2)cc1`, the CC50 at 72 h in data set [1] (read-out: CC50) and in data set [1] (read-out: pCC50 (converted)) was > 10 µM each time. Further, the EC50 is 1.68 µM in the data set on Plasmodium falciparum (read-out: EC50) and 1.7 µM in the data set with Plasmodium falciparum (read-out: pEC50 (converted)).
As for `COc1ccc(-n2cnc(C(=O)N(C)c3cccc(C)c3)n2)cc1`, the CC50 at 72 h in data set [1] (read-out: CC50) and in data set [1] (read-out: pCC50 (converted)) was > 10 µM each time. Also, the EC50 with Plasmodium falciparum (read-out: EC50) is > 5.77 µM; in the data set on Plasmodium falciparum (read-out: pEC50 (converted)), > 5.75 µM.
On to `Cc1ccc(-n2cnc(C(=O)Nc3ccc(Cl)cc3)n2)cc1`, for which the CC50 at 72 h in data set [1] (read-out: CC50) and in data set [1] (read-out: pCC50 (converted)) was > 10 µM throughout. The EC50 in the data set on Plasmodium falciparum (read-out: EC50) and in the data set with Plasmodium falciparum (read-out: pEC50 (converted)) was > 10 µM in each case.
Take `Cc1nc(-c2ccc(Cl)cc2)oc1C(=O)N(C)c1ccc(Cl)cc1`: the CC50 at 72 h in data set [1] (read-out: CC50) and in data set [1] (read-out: pCC50 (converted)) was > 10 µM each time. The EC50 is > 4.34 µM in the data set with Plasmodium falciparum (read-out: EC50) and > 4.37 µM with Plasmodium falciparum (read-out: pEC50 (converted)).
As to `Cc1ccc(-n2cc(C(=O)N(C)c3ccc(Cl)cc3)nn2)cc1`, the CC50 at 72 h in data set [1] (read-out: CC50) and in data set [1] (read-out: pCC50 (converted)) was > 10 µM each time. Moreover, the EC50 in the data set on Plasmodium falciparum (read-out: EC50) and with Plasmodium falciparum (read-out: pEC50 (converted)) was > 10 µM throughout.
Consider `COc1ccc(-n2cnc(C(=O)N(C)c3ccc(C)c(C)c3)n2)cc1`, for which the CC50 at 72 h in data set [1] (read-out: CC50) and in data set [1] (read-out: pCC50 (converted)) was > 10 µM each time. Besides, the EC50 with Plasmodium falciparum (read-out: EC50) and in the data set with Plasmodium falciparum (read-out: pEC50 (converted)) was > 10 µM throughout.
On to `CN(C(=O)c1ncn(-c2ccc(Cl)cc2)n1)c1ccccc1`, for which the CC50 at 72 h in data set [1] (read-out: CC50) and in data set [1] (read-out: pCC50 (converted)) was > 10 µM in each case. For the same compound, the EC50 in the data set with Plasmodium falciparum (read-out: EC50) and with Plasmodium falciparum (read-out: pEC50 (converted)) was > 13.8 µM each time.
As to `Cc1ccc(-c2cnc(C(=O)N(C)c3ccc(Cl)cc3)s2)cc1`, the CC50 at 72 h in data set [1] (read-out: CC50) and in data set [1] (read-out: pCC50 (converted)) was > 10 µM in each case. Further, the EC50 with Plasmodium falciparum (read-out: EC50) and in the data set with Plasmodium falciparum (read-out: pEC50 (converted)) was > 10 µM in each case.
Take `CCc1ccc(NC(=O)c2ncn(-c3ccc(Cl)cc3)n2)cc1`: the CC50 at 72 h in data set [1] (read-out: CC50) and in data set [1] (read-out: pCC50 (converted)) was > 10 µM in each case. Moreover, the values for the EC50 in the data set with Plasmodium falciparum (read-out: EC50) and in the data set with Plasmodium falciparum (read-out: pEC50 (converted)) were > 6.93 µM and > 6.92 µM, respectively.
In the case of `[2H]C([2H])([2H])N(C(=O)c1ncc(-c2ccc(Cl)cc2)o1)c1ccc(Cl)cc1`, the EC50 with Plasmodium falciparum (read-out: EC50) was 388 µM; with Plasmodium falciparum (read-out: pEC50 (converted)) it was 0.389 µM.
Regarding `Cc1ccc(N(C)C(=O)c2cn(-c3ccc(Cl)cc3)nn2)cc1`, the CC50 at 72 h in data set [1] (read-out: CC50) and in data set [1] (read-out: pCC50 (converted)) was > 10 µM in each case. The EC50 in the data set with Plasmodium falciparum (read-out: EC50) and in the data set with Plasmodium falciparum (read-out: pEC50 (converted)) was > 10 µM each time.
`CN(C(=O)c1ncc(-c2ccc(Cl)cc2)s1)c1ccc(Cl)cc1`: the CC50 at 72 h in data set [1] (read-out: CC50) and in data set [1] (read-out: pCC50 (converted)) was > 10 µM in each case. For the same compound, the EC50 with Plasmodium falciparum (read-out: EC50) was > 6.75 µM; in the data set on Plasmodium falciparum (read-out: pEC50 (converted)) it was > 6.76 µM.
Take `Cc1ccc(-c2nc(C)c(C(=O)N(C)c3ccc(Cl)cc3)o2)cc1`: the CC50 at 72 h in data set [1] (read-out: CC50) and in data set [1] (read-out: pCC50 (converted)) was > 10 µM throughout. In addition, the EC50 with Plasmodium falciparum (read-out: EC50) is > 8.87 µM; in the data set with Plasmodium falciparum (read-out: pEC50 (converted)) it was > 8.91 µM.
On to `CN(C(=O)c1cncc(-c2ccc(Cl)cc2)c1)c1ccc(Cl)cc1`, for which the CC50 at 72 h in data set [1] (read-out: CC50) and in data set [1] (read-out: pCC50 (converted)) was > 10 µM throughout.
As to `O=C(Nc1ccc([N+](=O)[O-])cc1)c1ncn(-c2ccc(Cl)cc2)n1`, the CC50 at 72 h in data set [1] (read-out: CC50) and in data set [1] (read-out: pCC50 (converted)) was > 10 µM throughout. Further, the EC50 with Plasmodium falciparum (read-out: EC50) and in the data set with Plasmodium falciparum (read-out: pEC50 (converted)) was > 10 µM in each case.
With `Cc1ccc(-c2ncc(C(=O)N(C)c3ccc(Cl)cc3)o2)cc1`, the CC50 at 72 h in data set [1] (read-out: CC50) and in data set [1] (read-out: pCC50 (converted)) was > 10 µM each time. Besides, the EC50 in the data set on Plasmodium falciparum (read-out: EC50) and in the data set on Plasmodium falciparum (read-out: pEC50 (converted)) was > 10 µM each time.
With `Cc1ccc(-c2cnc(C(=O)N(C)c3ccc(Cl)cc3)[nH]2)cc1`, the CC50 at 72 h in data set [1] (read-out: CC50) and in data set [1] (read-out: pCC50 (converted)) was > 10 µM each time. Further, the EC50 with Plasmodium falciparum (read-out: EC50) and in the data set on Plasmodium falciparum (read-out: pEC50 (converted)) was > 10 µM each time.
Regarding `Cc1ccc(C(=O)Nc2ncn(-c3ccc(Cl)cc3)n2)cc1`, the CC50 at 72 h in data set [1] (read-out: CC50) and in data set [1] (read-out: pCC50 (converted)) was > 10 µM each time. Besides, the EC50 with Plasmodium falciparum (read-out: EC50) and in the data set with Plasmodium falciparum (read-out: pEC50 (converted)) was > 10 µM in each case.
